Measurements from ChEMBL document CHEMBL4002623, “Synthesis and in vitro activity of dicationic indolyl diphenyl ethers as novel potent antibiotic agents against drug-resistant bacteria” (Bioorg Med Chem Lett, 2017).
≈ marks a conversion by molar mass, not a printed value.

How the values were obtained:
[1] = system: Staphylococcus aureus; experiment: Antibacterial activity against methicillin-sensitive Staphylococcus aureus ATCC 29213 by agar dilution method; format: functional
[2] = system: Staphylococcus aureus; experiment: Antibacterial activity against methicillin-resistant Staphylococcus aureus 09-13 by agar dilution method; format: functional
[3] = system: Staphylococcus epidermidis; experiment: Antibacterial activity against methicillin-sensitive Staphylococcus epidermidis ATCC 12228 by agar dilution method; format: functional
[4] = system: Staphylococcus epidermidis; experiment: Antibacterial activity against methicillin-resistant Staphylococcus epidermidis 09-3 by agar dilution method; format: functional
[5] = system: Enterococcus faecalis; experiment: Antibacterial activity against vancomycin-sensitive Enterococcus faecalis ATCC 29212 by agar dilution method; format: functional
[6] = system: Enterococcus faecalis; experiment: Antibacterial activity against vancomycin-resistant Enterococcus faecalis 09-9 by agar dilution method; format: functional
[7] = system: Enterococcus faecium; experiment: Antibacterial activity against vancomycin-resistant Enterococcus faecium ATCC 700221 by agar dilution method; format: functional
[8] = system: Escherichia coli; experiment: Antibacterial activity against extended-spectrum beta-lactamase-negative Escherichia coli ATCC 25922 by agar dilution method; format: functional
[9] = system: Escherichia coli; experiment: Antibacterial activity against extended-spectrum beta-lactamase-positive Escherichia coli 09-1 by agar dilution method; format: functional
[10] = system: Klebsiella pneumoniae; experiment: Antibacterial activity against extended-spectrum beta-lactamase-negative Klebsiella pneumoniae 7 by agar dilution method; format: functional
[11] = system: Klebsiella pneumoniae; experiment: Antibacterial activity against extended-spectrum beta-lactamase-positive Klebsiella pneumoniae 09-25 by agar dilution method; format: functional
[12] = system: Klebsiella pneumoniae; experiment: Antibacterial activity against Klebsiella pneumoniae ATCC BAA-2146 expressing NDM-1 by agar dilution method; format: functional
[13] = Cytotoxicity against HEK293T cells after 48 hrs by MTS assay; format: cell-based, HEK-293T; settings: human
[14] = system: Enterococcus faecium; experiment: Antibacterial activity against vancomycin-sensitive Enterococcus faecium 09-10 by agar dilution method; format: functional
[15] = system: Staphylococcus aureus; experiment: Antibacterial activity against methicillin-resistant Staphylococcus aureus ATCC 33591 by agar dilution method; format: functional
[16] = system: Staphylococcus aureus; experiment: Antibacterial activity against methicillin-sensitive Staphylococcus aureus 15 by agar dilution method; format: functional
[17] = system: Staphylococcus aureus; experiment: Antibacterial activity against methicillin-sensitive Staphylococcus aureus 09-6 by agar dilution method; format: functional
[18] = system: Staphylococcus epidermidis; experiment: Antibacterial activity against methicillin-sensitive Staphylococcus epidermidis 09-9 by agar dilution method; format: functional
[19] = system: Enterococcus faecalis; experiment: Antibacterial activity against vancomycin-resistant Enterococcus faecalis ATCC 51299 by agar dilution method; format: functional
[20] = system: Enterococcus faecalis; experiment: Antibacterial activity against vancomycin-sensitive Enterococcus faecalis 09-8 by agar dilution method; format: functional
[21] = system: Enterococcus faecium; experiment: Antibacterial activity against vancomycin-resistant Enterococcus faecium 05-8 by agar dilution method; format: functional
[22] = system: Escherichia coli; experiment: Antibacterial activity against extended-spectrum beta-lactamase-negative Escherichia coli 1515 by agar dilution method; format: functional
[23] = system: Escherichia coli; experiment: Antibacterial activity against extended-spectrum beta-lactamase-negative Escherichia coli 09-20 by agar dilution method; format: functional
[24] = system: Klebsiella pneumoniae; experiment: Antibacterial activity against extended-spectrum beta-lactamase-positive Klebsiella pneumoniae ATCC 700603 by agar dilution method; format: functional
[25] = system: Klebsiella pneumoniae; experiment: Antibacterial activity against extended-spectrum beta-lactamase-negative Klebsiella pneumoniae 09-8 by agar dilution method; format: functional
[26] = system: Pseudomonas aeruginosa; experiment: Antibacterial activity against Pseudomonas aeruginosa ATCC 27853 by agar dilution method; format: functional
[27] = system: Pseudomonas aeruginosa; experiment: Antibacterial activity against Pseudomonas aeruginosa PAO1 by agar dilution method; format: functional
[28] = system: Pseudomonas aeruginosa; experiment: Antibacterial activity against Pseudomonas aeruginosa 09-14 by agar dilution method; format: functional
[29] = system: Acinetobacter calcoaceticus; experiment: Antibacterial activity against Acinetobacter calcoaceticus ATCC 19606 by agar dilution method; format: functional
[30] = system: Enterobacter cloacae; experiment: Antibacterial activity against Enterobacter cloacae 45301 by agar dilution method; format: functional
[31] = system: Klebsiella aerogenes; experiment: Antibacterial activity against Enterobacter aerogenes 45102 by agar dilution method; format: functional
[32] = system: Serratia marcescens; experiment: Antibacterial activity against Serratia marcescens 41002 by agar dilution method; format: functional
[33] = system: Morganella morganii; experiment: Antibacterial activity against Morganella morganii ATCC 25830 by agar dilution method; format: functional
[34] = system: Providencia rettgeri; experiment: Antibacterial activity against Providencia rettgeri ATCC 31052 by agar dilution method; format: functional
[35] = system: Proteus vulgaris; experiment: Antibacterial activity against Proteus vulgaris ATCC 29905 by agar dilution method; format: functional
[36] = system: Proteus mirabilis; experiment: Antibacterial activity against Proteus mirabilis 09-1 by agar dilution method; format: functional
[37] = system: Salmonella typhi; experiment: Antibacterial activity against Salmonella typhi H901 by agar dilution method; format: functional, Salmonella enterica subsp. enterica serovar Typhi; settings: Salmonella enterica
[38] = system: Citrobacter freundii; experiment: Antibacterial activity against Citrobacter freundii ATCC 43864 by agar dilution method; format: functional
[39] = system: Staphylococcus aureus; experiment: Potency index, ratio of levofloxacin MIC to test compound MIC for methicillin-resistant Staphylococcus aureus 09-13; format: functional
[40] = system: Staphylococcus epidermidis; experiment: Potency index, ratio of levofloxacin MIC to test compound MIC for methicillin-resistant Staphylococcus epidermidis 09-3; format: functional
[41] = system: Enterococcus faecalis; experiment: Potency index, ratio of levofloxacin MIC to test compound MIC for vancomycin-resistant Enterococcus faecalis 09-9; format: functional
[42] = system: Enterococcus faecium; experiment: Potency index, ratio of levofloxacin MIC to test compound MIC for vancomycin-resistant Enterococcus faecium ATCC 700221; format: functional
[43] = system: Klebsiella pneumoniae; experiment: Potency index, ratio of levofloxacin MIC to test compound MIC for Klebsiella pneumoniae ATCC BAA-2146 expressing NDM-1; format: functional

N=C(c1ccc2cc(-c3ccc(Oc4ccc(-c5cc6ccc(C(=N)N7CCC7)cc6[nH]5)cc4)cc3)[nH]c2c1)N1CCC1
MIC [1]: 2 mg/L (≈ 3.54 µM) | MIC [2]: 0.5 mg/L (≈ 0.885 µM) | MIC [3]: 0.125 mg/L (≈ 0.221 µM) | MIC [4]: 0.5 mg/L (≈ 0.885 µM) | MIC [5]: 2 mg/L (≈ 3.54 µM) | MIC [6]: 8 mg/L (≈ 14.2 µM) | MIC [7]: 2 mg/L (≈ 3.54 µM) | MIC [8]: 16 mg/L (≈ 28.3 µM) | MIC [9]: 64 mg/L (≈ 113 µM) | MIC [10]: 64 mg/L (≈ 113 µM) | MIC [11]: 64 to 128 mg/L (≈ 113 to 227 µM) | MIC [12]: 64 to 128 mg/L (≈ 113 to 227 µM) | CC50 at 48 h [13]: 21.6 mg/L (≈ 38.3 µM) | MIC [14]: 8 mg/L (≈ 14.2 µM) | MIC [15]: 0.5 mg/L (≈ 0.885 µM) | MIC [16]: 0.5 mg/L (≈ 0.885 µM) | MIC [17]: 2 mg/L (≈ 3.54 µM) | MIC [18]: 0.5 mg/L (≈ 0.885 µM) | MIC [19]: 2 mg/L (≈ 3.54 µM) | MIC [20]: 2 mg/L (≈ 3.54 µM) | MIC [21]: 2 mg/L (≈ 3.54 µM) | MIC [22]: 64 mg/L (≈ 113 µM) | MIC [23]: 64 mg/L (≈ 113 µM) | MIC [24]: 64 mg/L (≈ 113 µM) | MIC [25]: 64 mg/L (≈ 113 µM) | MIC [26]: 128 mg/L (≈ 227 µM) | MIC [27]: > 128 mg/L | MIC [28]: > 128 mg/L | MIC [29]: > 128 mg/L | MIC [30]: > 128 mg/L | MIC [31]: 64 mg/L (≈ 113 µM) | MIC [32]: 128 mg/L (≈ 227 µM) | MIC [33]: 8 mg/L (≈ 14.2 µM) | MIC [34]: > 128 mg/L | MIC [35]: 128 mg/L (≈ 227 µM) | MIC [36]: 128 mg/L (≈ 227 µM) | MIC [37]: 32 mg/L (≈ 56.7 µM) | MIC [38]: 64 mg/L (≈ 113 µM) | Ratio [39]: 4 - 8 | Ratio [40]: 4 - 8 | Ratio [41]: 16 - 64 | Ratio [42]: 16 - 64

CN(C)C(=N)c1ccc2cc(-c3ccc(Oc4ccc(-c5cc6ccc(C(=N)N(C)C)cc6[nH]5)cc4)cc3)[nH]c2c1
MIC [1]: 0.25 mg/L (≈ 0.462 µM) | MIC [2]: 0.25 mg/L (≈ 0.462 µM) | MIC [3]: 0.125 mg/L (≈ 0.231 µM) | MIC [4]: 0.25 mg/L (≈ 0.462 µM) | MIC [5]: 0.5 mg/L (≈ 0.925 µM) | MIC [6]: 2 mg/L (≈ 3.7 µM) | MIC [7]: 2 mg/L (≈ 3.7 µM) | MIC [8]: 4 mg/L (≈ 7.4 µM) | MIC [9]: 8 mg/L (≈ 14.8 µM) | MIC [10]: 8 mg/L (≈ 14.8 µM) | MIC [11]: 8 mg/L (≈ 14.8 µM) | MIC [12]: 8 mg/L (≈ 14.8 µM) | CC50 at 48 h [13]: 21.6 mg/L (≈ 40 µM) | MIC [14]: 2 mg/L (≈ 3.7 µM) | MIC [15]: 0.25 mg/L (≈ 0.462 µM) | MIC [16]: 0.25 mg/L (≈ 0.462 µM) | MIC [17]: 0.25 mg/L (≈ 0.462 µM) | MIC [18]: 0.25 mg/L (≈ 0.462 µM) | MIC [19]: 1 mg/L (≈ 1.85 µM) | MIC [20]: 2 mg/L (≈ 3.7 µM) | MIC [21]: 2 mg/L (≈ 3.7 µM) | MIC [22]: 4 mg/L (≈ 7.4 µM) | MIC [23]: 8 mg/L (≈ 14.8 µM) | MIC [24]: 8 mg/L (≈ 14.8 µM) | MIC [25]: 8 mg/L (≈ 14.8 µM) | MIC [26]: 128 mg/L (≈ 237 µM) | MIC [27]: > 128 mg/L | MIC [28]: > 128 mg/L | MIC [29]: > 128 mg/L | MIC [30]: 64 mg/L (≈ 118 µM) | MIC [31]: 8 mg/L (≈ 14.8 µM) | MIC [32]: 32 mg/L (≈ 59.2 µM) | MIC [33]: > 128 mg/L | MIC [34]: 8 mg/L (≈ 14.8 µM) | MIC [35]: 8 mg/L (≈ 14.8 µM) | MIC [36]: 32 mg/L (≈ 59.2 µM) | MIC [37]: 16 mg/L (≈ 29.6 µM) | MIC [38]: 8 mg/L (≈ 14.8 µM) | Ratio [43]: >16
